# Laboratory results taken from US20020052331A1, “Compositions and methods for antisense inhibition of protein translation” (priority 1990, published 2002).
# pIC50: −log10 of the molar value. Where two headings read alike, the source gives them in different places. Strand notation (5' to 3'): a small letter for the sugar, then the base; units joined by * are phosphorothioate-linked, units joined directly phosphodiester-linked; [ ] holds rarer units or linkages, { } end groups; capitals alone tell only the bases. [MMI] = methylene(methylimino) internucleoside backbone linkage; [PRP-N] = 2'-O-propyl ribonucleoside (N: the base); [PRP] = 2'-O-propyl ribonucleoside; e = 2'-O-(2-methoxyethyl) (MOE); [5mC] = 5-methylcytosine; d = 2'-deoxy (DNA); m = 2'-O-methyl; f = 2'-fluoro
# Legend:
# VCAM-1 mRNA = assay: ELISA of VCAM-1 expression in HUVECs; assay type: cell-based, human; conditions: for pIC50: read-out: IC50 for inhibition of VCAM-1 expression
# E-selectin mRNA = assay: ELISA of E-selectin expression in HUVECs; assay type: cell-based, human; conditions: for inhibition of E-selectin expression: oligomer concentration of 50 nM
# ICAM-1 mRNA [1] = assay: Cell surface ICAM-1 expression in HUVECs after Lipofectin delivery of MMI oligomers; assay type: cell-based, human; conditions: six concentrations 6.2 to 200 nM, N.A. = IC50 not obtained in the given dose range, read-out: Antisense activity (IC50) Lipofectin
# ICAM-1 mRNA [2] = assay: Cell surface ICAM-1 expression in U937 cells after electroporation of MMI oligomers; assay type: cell-based, human; conditions: six concentrations 4 to 40 μM, N.A. = IC50 not obtained in the given dose range, read-out: Antisense activity (IC50) Electroporate
# Procedure: ISIS 14293-14296 are corresponding oligomers with alternating MMI/P═S backbones.
# U937 cells were washed once in cold Opti-MEM (Gibco-BRL, Grand Island, N.Y.) and resuspended at 4×10^6 cells/ml. Oligomer was added to 0.1 ml of cells and incubated for 10 minutes on ice. Cells were transferred to a 1 mm gap electrode (BTX, San Diego, Calif.) and electroporated at 0.75 kV/cm. Cells were incubated at room temperature for 10 minutes and transferred to pre-warmed medium. Cells were allowed to rest for 1.5 hours before ICAM-1 expression was induced with 5 ng/ml TNF-αovernight. Cells were stained with an anti-ICAM-1-PE antibody (Pharmingen, San Diego CA) the next day.
# ICAM-1 mRNA [3] = assay: ELISA of human ICAM-1 protein expression in HUVECs (mAb84H10); assay type: cell-based; conditions: FIG. 4 experiment
# ICAM-1 mRNA [4] = assay: ICAM-1 expression in U937 cells after electroporation of PNA oligomer (FACS); assay type: cell-based, human; conditions: electroporated into U937 cells
# Source text: A PNA oligomer, ISIS 10535 (SEQ ID NO: 2), was synthesized, which is a shortened version of SEQ ID NO: 1 made as a PNA, with three arginines added at the 5′ end and one lysine added at the 3′ end. This oligomer was electroporated into U937 cells and a potent dose-response was obtained.
# Cells were removed from plate surfaces by brief trypsinization with 0.25% trypsin in PBS. Trypsin activity was quenched with a solution of 2% bovine serum albumin and 0.2% sodium azide in PBS (+Mg/Ca). Cells were pelleted by centrifugation at 1000 rpm (Beckman GPR centrifuge), resuspended in PBS and stained with 3 μl/10^5 cells of ICAM-1 specific antibody, CD54-PE (Becton Dickinson, Mansfield Mass.) and 0.1 μg of control conjugated antibody, IgG2b-PE (Pharmingen, San Diego Calif.). Antibodies were incubated with the cells for 30 minutes at 4° C. in the dark, under gentle agitation. Cells were washed and then resuspended in 0.3 ml of FACSFLOW buffer (Becton Dickinson) with 0.5% formaldehyde. Expression of cell surface ICAM-1 was then determined by flow cytometry using a Becton Dickinson FACScan (San Jose, Calif.). ICAM-1 expression was calculated as a percentage of control expression.
# Cells were washed in PBS and resuspended in PBS at 1×10^6 cells/ml. […] ICAM-1 expression was quantitated by FACS as in Example 4.
# ICAM-1 mRNA [5] = assay: Reduction of ICAM-1 protein levels in HUVEC cells (LIPOFECTIN delivery, FACS); assay type: cell-based, human
# [6] = HUVECs, ELISA, FIG. 5 experiment, read-out: IC50 for reduction of E-selectin expression
# [7] = HUVECs, ELISA, equivalent (second) experiment, read-out: IC50 for reduction of E-selectin expression
# [8] = read-out: IC50 for inhibition of ICAM-1 protein expression
substance,measurement,setting,value
"ISIS 13183: SEQ ID NO: 15, P═O all 2′-MOE, all C's are 5meC; VCAM-1 n.t. 1-20 (antisense e[5mC]eGeAeTeGe[5mC]eAeGeAeTeAe[5mC]e[5mC]eGe[5mC]eGeGeAeGdT)",pIC50,VCAM-1 mRNA; FIG. 6 experiment,> 8.00
"ISIS 11205: SEQ ID NO: 3, P═S all 2′ F except 3′ nt is deoxy, all C's 5meC; E-selectin 5′ cap (antisense GAAGTCAGCCAAGAACAGCT; sugars from the 5' end f19 d1, all C 5-methyl, all phosphorothioate, T or U not given here)",pIC50,E-selectin mRNA; [6],> 8.52
same,pIC50,E-selectin mRNA; [7],> 8.52
same,inhibition of E-selectin expression,E-selectin mRNA; HUVECs,~100%
"ISIS 9984: SEQ ID NO: 3 GAAGTCAGCCAAGAACAGCT, P═S all 2′ F except 3′ nt is deoxy; E-selectin 5′ cap (sugars from the 5' end f19 d1, all phosphorothioate, T or U not given here)",IC50 for inhibition of E-selectin expression,"E-selectin mRNA; HUVECs, FIG. 3 experiment",well below this
same,relative activity in inhibiting E-selectin protein expression,E-selectin mRNA; among over 30 2′-fluoro phosphorothioate sequences complementary to various regions of the E-selectin message,by far the most active
"ISIS 5884: CGATGCAGATACCGCGGAGT (SEQ ID NO: 15), P═S deoxy; VCAM-1 n.t. 1-20 (dC*dG*dA*dT*dG*dC*dA*dG*dA*dT*dA*dC*dC*dG*dC*dG*dG*dA*dG*dT)",pIC50,VCAM-1 mRNA; FIG. 6 experiment,7.92 to 8.00
"ISIS 14293: T*CT*GA*GT*AG*CA*GA*GG*AG*CT*C (SEQ ID NO: 1), alternating P═S/MMI; ICAM-1 n.t. 1-20 (TCTGAGTAGCAGAGGAGCTC; linkages [MMI]s[MMI]s[MMI]s[MMI]s[MMI]s[MMI]s[MMI]s[MMI]s[MMI]s[MMI] (s phosphorothioate, o phosphodiester), sugars by position and methylation of C not given here; 3'-terminal nucleotide 2'-deoxy, non-terminal cytosines 5-methylated)",pIC50,ICAM-1 mRNA [1],6.94
same,pIC50,ICAM-1 mRNA [2],4.49
"ISIS 13886: GCAACTCTGAGTAGCAGAGG (SEQ ID NO: 10), uniform P═O/2′MOE; ICAM-1 n.t. 6-25 (antisense eGe[5mC]eAeAe[5mC]eTe[5mC]eTeGeAeGeTeAeGe[5mC]eAeGeAeGdG)",pIC50,ICAM-1 mRNA [3]; [8],< 7.30
same,pIC50,"ICAM-1 mRNA [3]; tested only up to 50 nM, read-out: estimated IC50 by extrapolation of the dose-response curve",~7.22
"ISIS 14290: T*GA*GT*AG*CA*GA*GG*AG*CT*C (SEQ ID NO: 12), alternating P═O/MMI; ICAM-1 n.t. 1-18 (TGAGTAGCAGAGGAGCTC; linkages [MMI]o[MMI]o[MMI]o[MMI]o[MMI]o[MMI]o[MMI]o[MMI]o[MMI] (s phosphorothioate, o phosphodiester), sugars by position and methylation of C not given here; 3'-terminal nucleotide 2'-deoxy, non-terminal cytosines 5-methylated)",pIC50,ICAM-1 mRNA [2],5.15
"ISIS 13181: SEQ ID NO: 15 sequence, P═S all 2′ F; VCAM-1 n.t. 1-20 (antisense CGATGCAGATACCGCGGAGT; sugars from the 5' end f19 d1, all phosphorothioate, T or U not given here)",pIC50,VCAM-1 mRNA; FIG. 6 experiment,> 8.00
same,inhibition of VCAM-1 expression,"VCAM-1 mRNA; highest dose tested, 100 nM",100%
"ISIS 14040: SEQ ID NO: 15, P═S all 2′-O-propyl, all C's are 5meC; VCAM-1 n.t. 1-20 (antisense [PRP-5mC]*[PRP-G]*[PRP-A]*[PRP-T]*[PRP-G]*[PRP-5mC]*[PRP-A]*[PRP-G]*[PRP-A]*[PRP-T]*[PRP-A]*[PRP-5mC]*[PRP-5mC]*[PRP-G]*[PRP-5mC]*[PRP-G]*[PRP-G]*[PRP-A]*[PRP-G]*dT)",pIC50,VCAM-1 mRNA; subsequent experiment,> 8.00
"ISIS 13884: GGCTGAGGTTGCAACTCTGA (SEQ ID NO: 9), uniform P═O/2′MOE; ICAM-1 n.t. 16-35 (antisense eGeGe[5mC]eTeGeAeGeGeTeTeGe[5mC]eAeAe[5mC]eTe[5mC]eTeGdA)",pIC50,ICAM-1 mRNA [3]; [8],~7.40
"ISIS 10535: PNA oligomer (SEQ ID NO: 2), shortened SEQ ID NO: 1, three arginines at the 5′ end and one lysine at the 3′ end (antisense TCTGAGTAGCAGAGGAGC; all peptide nucleic acid (PNA); three arginines at 5' end, one lysine at 3' end)",ICAM-1 level at higher doses,ICAM-1 mRNA [4],below baseline levels
same,pIC50,ICAM-1 mRNA [4]; read-out: IC50 for ICAM-1 reduction,> 5.30
"ISIS 11158: SEQ ID NO: 1, 2′-methoxyethoxy, phosphodiester (P═O); targeted to ICAM-1 5′ cap (antisense TCTGAGTAGCAGAGGAGCTC; all 2'-MOE, all phosphodiester, methylation of C not given here)",ICAM-1 protein expression at the oligonucleotide concentrations of the Northern experiment,ICAM-1 mRNA [5]; HUVECs,completely inhibited
same,pIC50,"ICAM-1 mRNA [5]; read-out: IC50 (concentration required for 50% inhibition of ICAM-1 levels), HUVEC cells",~8.05
same,pIC50,ICAM-1 mRNA [2],6.00
same,pIC50,ICAM-1 mRNA [3]; [8],~8.30
"ISIS 4764: SEQ ID NO: 3, P═S deoxy; E-selectin 5′ cap (dG*dA*dA*dG*dT*dC*dA*dG*dC*dC*dA*dA*dG*dA*dA*dC*dA*dG*dC*dT)",pIC50,E-selectin mRNA; [6],~8.00
same,pIC50,E-selectin mRNA; [7],8.00
same,pIC50,"E-selectin mRNA; HUVECs, FIG. 3 experiment, read-out: IC50 for inhibition of E-selectin expression",> 8.00
"ISIS 14043: SEQ ID NO: 3, P═S all 2′-O-methyl except 3′ nt is deoxy, all C's 5meC; E-selectin 5′ cap (GAAGTCAGCCAAGAACAGCT; sugars from the 5' end m19 d1, all C 5-methyl, all phosphorothioate, T or U not given here)",pIC50,E-selectin mRNA; [7],8.00
"ISIS 14295: A*GT*AG*CA*GA*GG*AG*CT*C (SEQ ID NO: 13), alternating P═S/MMI; ICAM-1 n.t. 1-16 (AGTAGCAGAGGAGCTC; chemistry not fully specified)",pIC50,ICAM-1 mRNA [2],4.46
"ISIS 14292: T*AG*CA*GA*GG*AG*CT*C (SEQ ID NO: 14), alternating P═O/MMI; ICAM-1 n.t. 1-14 (TAGCAGAGGAGCTC; linkages [MMI]o[MMI]o[MMI]o[MMI]o[MMI]o[MMI]o[MMI] (s phosphorothioate, o phosphodiester), sugars by position and methylation of C not given here; 3'-terminal nucleotide 2'-deoxy, non-terminal cytosines 5-methylated)",pIC50,ICAM-1 mRNA [2],4.82
"ISIS 9218: SEQ ID NO: 3, P═S all 2′-O-propyl except 3′ nt is deoxy; E-selectin 5′ cap (GAAGTCAGCCAAGAACAGCT; sugars from the 5' end [PRP]19 d1, all phosphorothioate, methylation of C not given here)",pIC50,E-selectin mRNA; [7],7.60
"ISIS 14041: SEQ ID NO: 15, P═S all 2′-O-methyl, all C's are 5meC; VCAM-1 n.t. 1-20 (CGATGCAGATACCGCGGAGT; sugars from the 5' end m19 d1, all C 5-methyl, all phosphorothioate, T or U not given here)",pIC50,VCAM-1 mRNA; subsequent experiment,> 8.00
"ISIS 11928: SEQ ID NO: 3, P═S all 2′-MOE except 3′ nt is deoxy, all C's 5meC; E-selectin 5′ cap (antisense eG*eA*eA*eG*eT*e[5mC]*eA*eG*e[5mC]*e[5mC]*eA*eA*eG*eA*eA*e[5mC]*eA*eG*e[5mC]*dT)",pIC50,E-selectin mRNA; [6],> 8.52
same,pIC50,E-selectin mRNA; [7],> 8.52
same,inhibition of E-selectin expression,E-selectin mRNA; HUVECs,~100%
"ISIS 13182: SEQ ID NO: 15, P═S all 2′-MOE, all C's are 5meC; VCAM-1 n.t. 1-20 (antisense e[5mC]*eG*eA*eT*eG*e[5mC]*eA*eG*eA*eT*eA*e[5mC]*e[5mC]*eG*e[5mC]*eG*eG*eA*eG*dT)",pIC50,VCAM-1 mRNA; FIG. 6 experiment,> 8.00
